Laboratory results reported in patent US7166612B2, “Methods for reducing platelet activation platelet aggregaton or thrombosis” (Beth Israel Deaconess Medical Center, priority 2001, dated 2007).

Assays:
platelets [1] = test: platelet aggregation (aggregometer); assay type: cell-based, human; conditions: in words
Experimental: Platelet aggregation profiling is a standard methodology, generally performed with an instrument adapted for that express purpose, for example, a Platelet Aggregation Profiler (BioData, Horsham, Pa.). The assays can generally be performed according to the instructions of the manufacturer. As exemplary conditions, 400 μl of PRP are incubated with inhibitor for 15 minutes at room temperature. The sample is then incubated for 3 minutes at 37° C. in the Platelet Aggregation Profiler. The instrument is calibrated with platelet poor plasma serving as a blank. A baseline tracing is established by monitoring the light transmittance of PRP being stirred at 1200 rpm. Aggregation is initiated by the addition of SFLLR (200 μM) and the percent of platelet aggregation is measured by the change in light transmittance for 6 minutes following addition of SFLLR.

[2] = system: platelet F-actin assembly; test: F-actin assembly (FITC-phalloidin, flow cytometry); assay type: cell-based; conditions: in words
Source text: To determine whether or not the effects of the pyridazinone compound were limited to inhibition of alpha-granule secretion, the ability of the compound to inhibit F-actin assembly and aIIbβ3 activation was examined. F-actin assembly was detected using FITC-phalloidin and quantified by flow cytometry (Winokur et al., 1995, Blood 85, 1796–804; Oda et al., 1992, Blood 79, 920–7).

human platelet PDE5 = molecular target: T1, human platelet PDE5 (Homo sapiens, UniProt O76074); test: phosphodiesterase inhibition, PDE5; assay type: biochemical; conditions: up to 1 μM, in words
T1 construct: from tissue; host or cells: human platelets
Experimental: Intracellular cAMP generated by adenylyl cyclase in platelets is actively hydrolyzed by phosphodiesterase. […] Human platelets express PDE2, PDE3, and PDE5. Therefore, the compound was tested for its inhibitory effect on these phosphodiesterases using methods as described in Example 3.

[3] = system: PGE1-induced cAMP levels in platelets; test: augmentation of PGE1-induced cAMP levels in platelets; assay type: cell-based, human; conditions: in words
Experimental: (A) Compound was tested for its ability to inhibit SFLLR-, U46619-, ADP-, PMA-, and collagen I-induced platelet α-granule secretion. (B) The effect of the compound on PGE1-stimulated cAMP elevation was analyzed. Platelets were incubated with increasing doses of pyridazinone compound for 30 minutes prior to the 2 minute incubation with PGE1. Platelets were subsequently lysed and cAMP level was assayed using a commercially available ELISA kit (Liao et al., 1998, Eur J Pharmacol 349, 107–14). […] Error bars represent mean ±1 SD (n=4), *P<0.001.
One frequent target of anti-platelet agents is phosphodiesterase III (PDE III). […] The assay is performed as described by Liao et al., 1998, Eur J Pharmacol 349,107–114, incorporated herein by reference. Briefly, aliquots of PRP are exposed to increasing concentrations of the agent for 20 minutes. The PRP is then challenged with 1 μM PGE1 for 2 min The reaction is stopped by adding 10 mM EDTA, followed immediately by boiling for 2 min. The mixture is cooled to 4° C. and the precipitated protein is pelleted. cAMP content in the supernatant is quantitated using an enzyme immunoassay kit (Pharmacia-Amersham, NJ) according to the instructions of the manufacturer.
In order to assess whether the compounds useful according to the invention might act through inhibition phosphodiesterase III, each was tested for its effect on PGE1-induced cAMP increase. Determination of platelet cAMP levels was performed as described by Liao et al., 1998, supra. Aliquots of PRP were exposed to increasing concentrations of the indicated compounds for 20 min. PRP was then challenged with 1 μM PGE1 for 2 min. The reaction was stopped with the addition of 10 mM EDTA followed immediately by boiling for 2 min. The mixture was then cooled to 4° C. and the precipitated protein was pelleted. Cyclic AMP content in the supernatant was then quantified using an enzyme immunoassay kit (Pharmacia-Amersham, NJ) according to the instructions of the manufacturer.

platelets [4] = test: agonist-induced platelet granule secretion (P-selectin expression, flow cytometry); assay type: cell-based, human; conditions: for effect on PMA-induced platelet activation: in words
Experimental: In order to assay platelet activation by cell surface marker expression, fresh PRP is isolated from donors who have not ingested aspirin for two weeks prior to donation. PRP (40 μl) is incubated with known or suspected inhibitor in DMSO or DMSO alone for 15 min. The sample is then incubated with the indicated agonist (e.g., SFLLR) for 10 min. Following incubation of the sample with the indicated agonist, 10 μl of reaction mixture is transferred to 5 μl of phycoerythrin (PE)-conjugated AC 1.2 anti-P-selectin antibody (for assessment of P-selectin surface expression) or fluorescein isothiocyanate (FITC)-conjugated PAC-1 antibody (for assessment of GPIIbIIIa activation). PBS (500 μl) is added to the sample after a 20 min incubation and the platelets are analyzed immediately by flow cytometry. Flow cytometry can be performed using, for example, a Becton-Dickinson FACSCalibur flow cytometer or its equivalent. Fluorescent channels are set at logarithmic gain. Ten thousand particles are acquired for each sample. A 530/30 band pass filter is used for FL-1 fluorescence. A 585/42 band pass filter is used for FL-2 fluorescence. FITC is measured in the FL-1 channel and PE is measured in the FL-2 channel. Data are analyzed using, for example, CellQuest software on a Macintosh PowerPC, or their equivalents. […]
Each of the compounds was tested for inhibition of platelet activation in response to the agonists SFLLR (a thrombin mimic), U46619 (a thromboxane A2 mimic), ADP and the phorbol ester PMA.
Compounds were also tested by flow cytometry for the inhibition of SFLLR-induced GPIIbIIIa activation and P-selectin expression. In these experiments, freshly obtained PRP was prepared from healthy volunteers who had not ingested aspirin for two weeks prior to donation. Forty μl of PRP was incubated with inhibitor in DMSO or DMSO alone for 15 min. The sample was then incubated with the indicated agonist for 10 min. Following incubation of the sample with the indicated agonist, 10 μl of reaction mixture was transferred to 5 μl of PE-conjugated AC1.2 anti-P-selectin antibody (for assessment of P-selectin surface expression) or FITC-conjugated PAC-1 antibody (for assessment of GPIIbIIIa activation). PBS (500 μl) was added to the sample after a 20 min incubation and the platelets were analyzed immediately by flow cytometry. Flow cytometry was performed using a Becton-Dickinson FACSCalibur flow cytometer. Fluorescent channels were set at logarithmic gain. Ten thousand particles were acquired for each sample. A 530/30 band pass filter was used for FL-1 fluorescence. A 585/42 band pass filter was used for FL-2 fluorescence. FITC was measured in the FL-1 channel and PE was measured in the FL-2 channel. Data were analyzed using CellQuest software on a MacIntosh PowerPC.
Compound was tested for its ability to inhibit SFLLR-, U46619-, ADP-, PMA-, and collagen I-induced platelet α-granule secretion. In these assays, platelets were incubated with increasing doses of compound for 30 minutes. The platelets were then exposed to a maximally stimulatory dose of the indicated agonist. P-selectin surface expression was analyzed by flow cytometry using phycoerythrin-anti-P-selectin to monitor for α-granule secretion.

[5] = listed as Pyridazinone compound
[6] = listed as pyridazinone compound

## CC1CC(=O)NN=C1c1ccc(N)c([N+](=O)[O-])c1 (stereo not drawn) [6-(4-Amino-3-nitro-phenyl)-5-methyl-4,5-dihydro-2H-pyridazin-3-one]
Platelets [1]
  inhibition of SFLLR-induced platelet aggregation: potent inhibitor
[2]
  SFLLR-induced F-actin assembly: interferes with SFLLR-induced cytoskeleton rearrangement
Human platelet PDE5; [5]
  inhibition of human platelet PDE5: No significant inhibition
Human platelet PDE5; [6]
  inhibition of human platelet PDE5: little inhibition
[3]
  effect on PGE1-stimulated cAMP levels in platelets: augments PGE1-induced cAMP levels in a dose-dependent manner
[3]; [5]
  effect on PGE1-stimulated cAMP levels in platelets: augment PGE1-induced cAMP level increase in platelets in a dose-dependent manner
Platelets [4]; ADP, collagen vs SFLLR, U46619
  IC50s for ADP- and collagen-induced granule release less potent than SFLLR/U46619: at least 25 fold
Platelets [4]; listed as Structure 8
  effect on PMA-induced platelet activation: did not inhibit
Platelets [4]; [6]
  effect on PMA-induced platelet activation: No inhibition
